Our source for the IC50 values is patent US20140058103A1, “Inhibitors of PI3K-Delta and Methods of Their Use and Manufacture” (Exelixis, Inc., priority 2010, published 2014).

Usually IC50 stands for the concentration at which inhibition is half-maximal. Higher therefore signals weaker potency in that assay.

The structures appear in SMILES notation. Bounds are passed on as bounds.

Chain of PI3K delta (O00329 whole entry): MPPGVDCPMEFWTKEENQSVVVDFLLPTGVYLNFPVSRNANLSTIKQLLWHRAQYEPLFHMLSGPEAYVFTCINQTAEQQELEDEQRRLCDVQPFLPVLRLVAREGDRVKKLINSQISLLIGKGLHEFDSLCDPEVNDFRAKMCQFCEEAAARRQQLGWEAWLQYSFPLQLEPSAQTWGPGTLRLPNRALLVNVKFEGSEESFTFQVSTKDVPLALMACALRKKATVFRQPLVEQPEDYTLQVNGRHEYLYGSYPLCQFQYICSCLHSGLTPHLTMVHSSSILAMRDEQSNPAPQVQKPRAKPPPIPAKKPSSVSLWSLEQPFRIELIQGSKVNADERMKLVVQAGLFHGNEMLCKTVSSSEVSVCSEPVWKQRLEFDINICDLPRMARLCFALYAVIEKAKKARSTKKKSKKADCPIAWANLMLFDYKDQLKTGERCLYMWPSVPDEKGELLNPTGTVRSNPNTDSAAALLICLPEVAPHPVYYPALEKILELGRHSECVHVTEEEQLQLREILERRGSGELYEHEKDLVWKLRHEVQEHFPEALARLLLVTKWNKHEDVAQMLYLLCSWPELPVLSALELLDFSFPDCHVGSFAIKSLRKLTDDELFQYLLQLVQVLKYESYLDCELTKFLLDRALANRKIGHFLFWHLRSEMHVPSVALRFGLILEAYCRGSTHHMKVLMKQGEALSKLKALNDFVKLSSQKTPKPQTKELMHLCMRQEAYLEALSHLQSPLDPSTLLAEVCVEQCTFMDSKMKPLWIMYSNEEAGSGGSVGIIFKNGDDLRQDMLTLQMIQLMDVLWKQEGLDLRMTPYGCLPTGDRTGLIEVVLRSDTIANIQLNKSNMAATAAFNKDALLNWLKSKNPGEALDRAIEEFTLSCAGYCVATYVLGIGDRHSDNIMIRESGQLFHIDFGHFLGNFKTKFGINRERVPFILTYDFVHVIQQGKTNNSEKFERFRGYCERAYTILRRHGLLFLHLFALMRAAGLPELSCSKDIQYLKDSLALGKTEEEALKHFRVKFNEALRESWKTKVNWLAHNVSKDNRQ
Chain of PI3K delta (P27986 whole entry partner): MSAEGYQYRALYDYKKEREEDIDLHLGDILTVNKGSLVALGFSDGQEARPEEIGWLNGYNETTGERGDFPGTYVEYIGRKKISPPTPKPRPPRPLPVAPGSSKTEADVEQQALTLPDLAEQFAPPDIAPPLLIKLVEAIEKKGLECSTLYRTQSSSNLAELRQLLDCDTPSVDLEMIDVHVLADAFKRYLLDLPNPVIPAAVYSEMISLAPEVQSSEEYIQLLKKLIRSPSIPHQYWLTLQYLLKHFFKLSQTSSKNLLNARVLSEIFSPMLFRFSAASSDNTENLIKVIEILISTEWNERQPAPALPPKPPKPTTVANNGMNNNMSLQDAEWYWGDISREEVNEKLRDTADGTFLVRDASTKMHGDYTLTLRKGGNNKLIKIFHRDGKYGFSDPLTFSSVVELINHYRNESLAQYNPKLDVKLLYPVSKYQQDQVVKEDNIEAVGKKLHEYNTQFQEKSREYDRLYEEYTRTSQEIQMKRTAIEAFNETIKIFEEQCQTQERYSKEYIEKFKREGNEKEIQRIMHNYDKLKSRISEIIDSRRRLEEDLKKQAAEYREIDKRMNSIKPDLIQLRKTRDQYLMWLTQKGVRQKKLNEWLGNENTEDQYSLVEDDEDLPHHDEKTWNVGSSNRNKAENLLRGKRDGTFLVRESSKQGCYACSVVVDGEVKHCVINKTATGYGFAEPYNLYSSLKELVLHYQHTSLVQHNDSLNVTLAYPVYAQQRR

This assay addresses PI3K delta (Homo sapiens, UniProt O00329). In words: Luciferase-coupled chemiluminescence kinase assay (ATP consumption, KinaseGlo). Type of assay: biochemical. As to the method:
Kinase activity and compound inhibition were investigated using one or more of the assay formats described below. The ATP concentrations used in the various assays were approximately equal to or less than the KM for each of the respective kinases. Dose-response experiments were performed using an intra-plate dilution scheme with 10 different inhibitor concentrations in a 384-well microtiter plate. IC50 values were calculated by nonlinear regression analysis using the four-parameter equation listed below:
Y=min+(max−min)/(1+(X/IC50)^N) Equation 1
Typically N should approximate unity. Curve fitting was performed using XLFit or ActivityBase.
Kinase activity is measured as the percent of ATP consumed following the kinase reaction using luciferase-luciferin-coupled chemiluminescence. […] Kinase reactions were initiated by combining test compounds, kinase, and ATP in a 20 μL volume (6 μL volume for 1536-well plate). The reaction mixture was incubated at ambient temperature for 2 h. Following the kinase reaction, a 20 μL (or […] for 1536-well plate) aliquot of KinaseGlo (Promega) was added and the chemiluminescence signal measured using an EnVision plate reader (Perkin Elmer).
For orientation: Kinase-Glo measures the ATP left after a reaction by luminescence.
Take `CCn1cc(-c2nc3c(N4CCN(S(=O)(=O)c5ccccc5)CC4)ncnc3n2C)cn1` [Compound 367, 8-(1-ethyl-1H-pyrazol-4-yl)-9-methyl-6-[4-(phenylsulfonyl)piperazin-1-yl]-9H-purine]: the IC50 fell in the range of 50 to 250 nM.
Then `CCn1c(-c2cn[nH]c2)nc2c(N3CCC4(CC3)C(=O)Nc3ccccc34)ncnc21` [Compound 252, 1′-[9-ethyl-8-(1H-pyrazol-4-yl)-9H-purin-6-yl]spiro[indole-3,4′-piperidin]-2(1H)-one], with less than 50 nM; and `Cn1c(C(=O)NCC2CC2)nc2c(N3CCC4(CC3)C(=O)Nc3c(Br)cccc34)ncnc21` [Compound 168, 6-(7-bromo-2-oxo-1,2-dihydro-1′H-spiro[indole-3,4′-piperidin]-1′-yl)-N-(cyclopropylmethyl)-9-methyl-9H-purine-8-carboxamide], with less than 50 nM; and `CCNC(=O)c1nc2c(N3CCC(n4c(=O)[nH]c5ccccc54)CC3)ncnc2n1C` [Compound 62, N-ethyl-9-methyl-6-[4-(2-oxo-2,3-dihydro-1H-benzimidazol-1-yl)piperidin-1-yl]-9H-purine-8-carboxamide], with 50 to 250 nM.
Then `CCn1cc(-c2nc3c(N4CCN(C5=NS(=O)(=O)c6ccccc65)CC4)ncnc3n2C)cn1` [Compound 349, 6-[4-(1,1-dioxido-1,2-benzisothiazol-3-yl)piperazin-1-yl]-8-(1-ethyl-1H-pyrazol-4-yl)-9-methyl-9H-purine], with 50 to 250 nM.
Then `Cn1c(C(=O)N2CC[C@H](F)C2)nc2c(N3CCC4(CC3)C(=O)Nc3ccccc34)ncnc21` [Compound 109, 1′-(8-{[(3S)-3-fluoropyrrolidin-1-yl]carbonyl}-9-methyl-9H-purin-6-yl)spiro[indole-3,4′-piperidin]-2(1H)-one], with 50 to 250 nM.
As to `CCn1c(C(=O)NC2COC2)nc2c(N3CCC(n4c(=O)[nH]c5ccccc54)CC3)ncnc21` [Compound 208, 9-ethyl-N-oxetan-3-yl-6-[4-(2-oxo-2,3-dihydro-1H-benzimidazol-1-yl)piperidin-1-yl]-9H-purine-8-carboxamide], the IC50 was less than 50 nM.
Then `Cn1c(-c2cccnc2)nc2c(N3CCC(n4c(=O)[nH]c5ccccc54)CC3)ncnc21` [Compound 268, 1-[1-(9-Methyl-8-pyridin-3-yl-9H-purin-6-yl)piperidin-4-yl]-1,3-dihydro-2H-benzimidazol-2-one], with less than 50 nM; and `Cc1nnc(-c2nc3c(N4CCC(n5c(=O)[nH]c6ccccc65)CC4)ncnc3n2C)o1` [Compound 102, 1-{1-[9-methyl-8-(5-methyl-1,3,4-oxadiazol-2-yl)-9H-purin-6-yl]piperidin-4-yl}-1,3-dihydro-2H-benzimidazol-2-one], with 50 to 250 nM.
In turn, `CN(C)c1ccc(-c2nc3c(N4CCC(n5c(=O)[nH]c6ncccc65)CC4)ncnc3n2C)cn1` [Compound 365, 1-(1-{8-[6-(dimethylamino)pyridin-3-yl]-9-methyl-9H-purin-6-yl}piperidin-4-yl)-1,3-dihydro-2H-imidazo[4,5-b]pyridin-2-one] returned a concentration for half-maximal inhibition (IC50) of less than 50 nM.
Then `Cc1c(-c2nc3c(N4CCC5(CC4)C(=O)Nc4ccccc45)ncnc3n2C)cnn1C` [Compound 246, 1′-[8-(1,5-dimethyl-1H-pyrazol-4-yl)-9-methyl-9H-purin-6-yl]spiro[indole-3,4′-piperidin]-2(1H)-one], with less than 50 nM; and `CCCNC(=O)c1nc2c(N3CCC(n4c(=O)[nH]c5ccccc54)CC3)ncnc2n1C` [Compound 69, 9-methyl-6-[4-(2-oxo-2,3-dihydro-1H-benzimidazol-1-yl)piperidin-1-yl]-N-propyl-9H-purine-8-carboxamide], with 50 to 250 nM; and `Cn1c(C(=O)NCC2CC2)nc2c(N3CCC(C#N)(c4ccccc4)CC3)ncnc21` [Compound 275, 6-(4-cyano-4-phenylpiperidin-1-yl)-N-(cyclopropylmethyl)-9-methyl-9H-purine-8-carboxamide], with 50 to 250 nM.
Then `Cc1cncc(-c2nc3c(N4CCC(n5c(=O)[nH]c6ccccc65)CC4)ncnc3n2C)c1` [Compound 282, 1-{1-[9-methyl-8-(5-methylpyridin-3-yl)-9H-purin-6-yl]piperidin-4-yl}-1,3-dihydro-2H-benzimidazol-2-one], with less than 50 nM.
Then `Cn1c(C(=O)NCC2CCOCC2)nc2c(N3CCC4(CC3)C(=O)Nc3ccccc34)ncnc21` [Compound 77, 9-methyl-6-(2-oxo-1,2-dihydro-1′H-spiro[indole-3,4′-piperidin]-1′-yl)-N-(tetrahydro-2H-pyran-4-ylmethyl)-9H-purine-8-carboxamide], with 50 to 250 nM.
`CCn1cc(-c2nc3c(N4CCC5(CC4)C(=O)Nc4ccccc45)ncnc3n2CC)cn1` [Compound 250, 1′-[9-ethyl-8-(1-ethyl-1H-pyrazol-4-yl)-9H-purin-6-yl]spiro[indole-3,4′-piperidin]-2(1H)-one] had an IC50 of less than 50 nM.
For `COc1ccc(-c2nc3c(N4CCC(n5c(=O)[nH]c6ccccc65)CC4)ncnc3n2C)cn1` [Compound 299, 1-(1-{9-methyl-8-[6-(methyloxy)pyridin-3-yl]-9H-purin-6-yl}piperidin-4-yl)-1,3-dihydro-2H-benzimidazol-2-one], the IC50 is less than 50 nM.
`CCn1c(-c2ccnnc2)nc2c(N3CCC(n4c(=O)[nH]c5ccccc54)CC3)ncnc21` [Compound 312, 1-[1-(9-ethyl-8-pyridazin-4-yl-9H-purin-6-yl)piperidin-4-yl]-1,3-dihydro-2H-benzimidazol-2-one]: the IC50 is less than 50 nM.
Then `Cn1c(-c2ccc(C(F)(F)F)nc2)nc2c(N3CCC4(CC3)C(=O)Nc3ccccc34)ncnc21` [Compound 327, 1′-{9-methyl-8-[6-(trifluoromethyl)pyridin-3-yl]-9H-purin-6-yl}spiro[indole-3,4′-piperidin]-2(1H)-one], with less than 50 nM.
Then `Cn1c(C(=O)NCC2CC2)nc2c(N3CCC(N4c5ccccc5NS4(=O)=O)CC3)ncnc21` [Compound 133, N-(cyclopropylmethyl)-6-[4-(2,2-dioxido-2,1,3-benzothiadiazol-1(3H)-yl)piperidin-1-yl]-9-methyl-9H-purine-8-carboxamide], with 50 to 250 nM; and `Cn1c(C(=O)NCc2ccco2)nc2c(N3CCC(n4c(=O)[nH]c5ccccc54)CC3)ncnc21` [Compound 46, N-(furan-2-ylmethyl)-9-methyl-6-[4-(2-oxo-2,3-dihydro-1H-benzimidazol-1-yl)piperidin-1-yl]-9H-purine-8-carboxamide], with 50 to 250 nM.
Then `Cn1cc(-c2nc3c(N4CCC5(CC4)C(=O)Nc4ccccc45)ncnc3n2C)cn1` [Compound 239, 1′-[9-methyl-8-(1-methyl-1H-pyrazol-4-yl)-9H-purin-6-yl]spiro[indole-3,4′-piperidin]-2(1H)-one], with less than 50 nM.
Compound `Cn1c(C(=O)N2CCCC2)nc2c(N3CCC(n4c(=O)[nH]c5ccccc54)CC3)ncnc21` [Compound 68, 1-{1-[9-methyl-8-(pyrrolidin-1-ylcarbonyl)-9H-purin-6-yl]piperidin-4-yl}-1,3-dihydro-2H-benzimidazol-2-one] registered an IC50 of 250 to 500 nM.
Then `Cn1c(C(=O)NCCc2ccccc2)nc2c(N3CCC4(CC3)C(=O)Nc3ccccc34)ncnc21` [Compound 395, 9-methyl-6-(2-oxo-1,2-dihydro-1′H-spiro[indole-3,4′-piperidin]-1′-yl)-N-(2-phenylethyl)-9H-purine-8-carboxamide], with 500 to 1500 nM.
